Assay results published in patent US7045513B1, “DHEA composition and method” (priority 1999, dated 2006).

Key:
[1] = 14-day stress study of DHEA forms I and II, monitored by XRPD; format: physicochemical; settings: for Stability (summary): ambient conditions and heat at non-saturating humidity; for Stability to solid form conversion: ambient temperature and 50° C., two weeks, RH as high as 84%
Experimental: Little weight gain (<0.8%) is observed in these samples. (Weight losses observed at 50° C. could be due to loss of residual solvent, sublimation of sample, and/or thermal degradation.)
X-Ray Powder Diffraction (XRPD). XRPD analyses were carried out on a Siemens D-500 X-ray Powder Diffractometer-Kristaloflex or a Shimadzu XRD-6000 X-ray powder diffractometer using Cu Kα radiation (1.5406 Å).
The Siemens instrument was equipped with an IBM-compatible interface and utilized DIFFRAC AT software (SOCABIM, 1994). Slits I and II were set at 1° and the radiation was electronically filtered by a Kevex Psi Peltier cooled silicon detector with slits III at 1° and IV at 0.15°. A continuous theta-two theta scan at 6°/min (0.4 sec/0.04° step) from 4 to 40°2θ was used. A silicon standard was analyzed each day to check the instrument alignment. Each sample was prepared by pressing a small amount of the powder onto a zero-background quartz-in-aluminum sample holder.
The Shimadzu instrument was equipped with a fine-focus X-ray tube. The tube power was set at 40 kV, 40 mA. The divergence and scattering slits were set at 1° and the receiving slit was set at 0.15 mm. Diffracted radiation was detected by an NaI scintillation detector. A theta-two theta continuous scan at 3°/min (0.4 sec/0.02° step) from 4 to 40°2θ was used. A silicon standard was analyzed each day to check the instrument alignment, and an alumina standard was analyzed each day to check the X-ray tube output. Each sample was prepared for analysis by pressing it with a spatula onto a glass or quartz sample holder.

[2] = Single dose pharmacokinetic study of orally administered DHEA formulations; format: in vivo, human; settings: conclusion drawn from the single dose study
Experimental: Example 2 describes a study in which 34 healthy postmenopausal women were administered orally one of three formulations of DHEA, each prepared from commercially available DHEA, in capsular form. The formulations were administered in single dosages of four opaque, size 2 capsules, each capsules containing 50 mg DHEA, 152 mg lactose (169 mg for formulation 3), 108 mg corn starch, and 3 mg magnesium stearate.
Blood samples were collected prior to and at various times after administration, and the levels of DHEA and DHEA-S were measured by immunoassay. […]
AUC (area under curve) is an indicator of extent of absorption; Cmax and Tmax are indicators of rate of absorption. Serum DHEA concentrations for all samples were above the assay limit of quantification. […]
DHEA levels were determined by radioimmunoassay (RIA) at Endocrine Sciences Inc., after non-polar solvent extraction. […] Internal assay controls were monitored via control charts. […]. […]
Adjusted serum levels were calculated by subtracting baseline (average of −0.5 hr and 0 hr serum levels). […] For DHEA and DHEA-S, the peak serum concentration (Cmax) and time to peak concentration (Tmax) were assessed from the concentration-time data. […]

[3] = Solid form stability of form I after 1, 2, 3 and 6 months, by 13C-SSNMR; format: physicochemical
Experimental: Solid State NMR Method (SSNMR). SSNMR spectra were obtained on a General Electric Omega PSG, 100 MHz spectrometer using about 50 mg of sample in a 5-mm diameter zirconia rotor. High-power proton decoupling and cross-polarization with magic-angle spinning at approximately 5 kHz were used. The magic angle was adjusted using the Br signal of KBr by detecting the side bands as described by Frye and Maciel, 1982. The chemical shifts were referenced externally to the CH resonance of adamantane at 29.50 ppm. Curve fitting of selected peaks for integration was performed as described by MacDonald (1980). The following peaks were used to measure forms I, II and VI: sum of peaks at 118.8 and 120.3 ppm (form I), peak at 119.8 ppm (form II), and peak at 118.5 ppm (form VI).

[4] = 25° C. (ambient temperature), 95% RH

Row | Structure (SMILES) | Final Form (by XRPD), 14 days [1, 4] | Wt change, % (14 days) ([1]; 25° C., 58% RH, 14 days) | Wt change, % (14 days) ([1]; 25° C., 75% RH, 14 days) | Wt change, % (14 days) ([1]; 25° C., 84% RH, 14 days) | Wt change, % (14 days) ([1]; 25° C., 95% RH, 14 days) | Wt change, % (14 days) ([1]; 50° C., 58% RH, 14 days) | Final Form (by XRPD), 14 days ([1]; 50° C., 75% RH) | Wt change, % (14 days) ([1]; 50° C., 75% RH, 14 days) | Final Form (by XRPD), 14 days ([1]; 50° C., 84% RH) | Wt change, % (14 days) ([1]; 50° C., 84% RH, 14 days) | Final Form (by XRPD), 14 days ([1]; 50° C., 95% RH) | Wt change, % (14 days) ([1]; 50° C., 95% RH, 14 days) | Solid form conversion ([1]; 50°, RH of 75% or greater, 14 days) | Stability (summary) [1] | Stability to solid form conversion [1] | Bioavailability when administered orally [2] | Overall stability, form I compared with form II ([1]; summary of the stability studies) | Final Form (by 13C-SSNMR), 1, 2, 3, and 6 months ([3]; 25° C., 58% RH) | Final Form (by 13C-SSNMR), 1, 2, 3, and 6 months ([3]; 40° C. (footnote b), 75% RH)
1 | C[C@]12CC[C@H](O)CC1=CC[C@@H]1[C@@H]2CC[C@]2(C)C(=O)CC[C@@H]12 [Form II, dehydroepiandrosterone] | converted to S2 | 0% | −0.3% | +0.2% | +5% | −1% | II + S1 | −2% | II + S1 | −0.3% | II + S1 | +1% | partially converted to S1 | stable | stable to solid form conversion | high bioavailability | – | – | –
2 | C[C@]12CC[C@H](O)CC1=CC[C@@H]1[C@@H]2CC[C@]2(C)C(=O)CC[C@@H]12 [Form I, dehydroepiandrosterone] | stable | −0.6% | +0.3% | +0.1% | +0.2% | −1% | – | −3% | – | −2% | converted to S2 | +1% | – | stable | stable to solid form conversion | high bioavailability | greater overall stability | remained stable to solid form conversion | remained stable to solid form conversion
